Laboratory results reported in patent publication US12215106B2, “Pharmaceutical compounds and therapeutic methods” (RUTGERS, THE STATE UNIVERSITY OF NEW JERSEY, priority 2018, dated 2025).
Where a name gives a salt, the structure may show the parent alone. Read-outs that look alike come from different tables or passages of the source.

Assay: Plasma pharmacokinetics and brain distribution after single IV, IP and oral administration
Type: in vivo
Details: male, C57BL/6, mouse
Experimental: (§1) The objective of this study was to investigate the plasma pharmacokinetics and brain distribution of Compound (14 in male C57BL/6 mice following a single intravenous, intraperitoneal and oral administration. A group of sixty-three male mice were divided into three groups (Group 1: 2 mg/kg/IV; Group 2: 10 mg/kg/IP and Group 3: 10 mg/kg/PO) with each group comprising of twenty-one mice.
Animals in Group 1 were administered intravenously with Compound 15 solution formulation in 5% NMP, 5% Solutol HS-15, 30% PEG-400 and 60% Captisol (20% w/v) at 2 mg/kg dose. […] Considering mortality intravenous dose was reduced to 2 mg/kg.
Animals in Group 2 and 3 were administered with Compound 15 solution formulation in 5% NMP, 5% Solutol HS-15, 30% PEG-400 and 60% Captisol (20% w/v) at a dose of 10 mg/kg by intraperitoneal and oral route respectively.
(§2) Blood samples (approximately 60 μL) were collected under light isoflurane anesthesia from retro orbital plexus from a set of three mice at 0.08, 0.35, 1, 3, 6, 12 and 24 hr. Plasma samples were separated by centrifugation of whole blood and stored below −70±10° C. until bioanalysis. Immediately after collection of blood, brain samples were collected from set of three mice at each time point. Brain samples were homogenized using ice-cold phosphate buffer saline (pH-7.4) in a ratio of 2 (buffer):1(brain); and homogenates were stored below −70±10° C. until analysis. Total homogenate volume was three times the brain weight. All samples were processed for analysis by protein precipitation using acetonitrile and analyzed with fit-for-purpose LC/MS/MS method (LLOQ2.00 ng/mL for plasma and 3.00 ng/g for brain). Pharmacokinetic parameters were calculated using the non-compartmental analysis tool of Phoenix WinNonlin® (Version 7.0). Pharmacokinetic parameters of Compound 15 are summarized below.
as §1, with “Compound 16” for “Compound (14”, “1: 10” for “1: 2”
Animals in Group 1 were administered intravenously with Compound 16 solution formulation in 5% NMP, 5% Solutol HS-15 and 90% normal saline at 10 mg/kg dose.
Animals in Group 2 and 3 were administered with Compound 16 solution formulation in 5% NMP, 5% Solutol HS-15 and 90% normal saline at a dose of 10 mg/kg by intraperitoneal and oral route respectively.
as §2, with “(LLOQ—1.00” for “(LLOQ2.00”, “16” for “15”
as §1, with “17” for “(14”, “mice. […]” for “mice.”

[1] = brain, ip, 10 mg/kg, IP 10 mg/kg, read-out: Brain-to-plasma ratio
[2] = brain, po, 10 mg/kg, PO 10 mg/kg, read-out: Brain-to-plasma ratio
[3] = in vivo, ip, 10 mg/kg, Brain concentration, individual animal
[4] = in vivo, ip, 10 mg/kg, Mean brain conc.
[5] = in vivo, ip, 10 mg/kg, Mean plasma conc.
[6] = in vivo, ip, 10 mg/kg, Plasma concentration, individual animal
[7] = in vivo, iv, 2 mg/kg, Brain concentration, individual animal

[2H]C([2H])([2H])Oc1ccc(Nc2nc(-c3c(C)nc4ccccn34)cs2)cc1 [Compound 15, N-(4-(methoxy-d3)phenyl)-4-(2-methylimidazo[1,2-c]pyridin-3-yl)thiazol-2-amine hydrochloride]
Kp at 0.08 h [1]: 0.19
Kp at 0.35 h [1]: 0.63
Kp at 1 h [1]: 0.75
Kp at 3 h [1]: 0.36
Kp at 6 h [1]: 0.38
Kp (brain, ip, 10 mg/kg, IP 10 mg/kg, read-out: brain-to-plasma ratio, range over time): 0.19 to 0.75
Kp (brain, iv, 2 mg/kg, IV 2 mg/kg, read-out: brain-to-plasma ratio, range over time): 1.17 to 1.64
Kp at 0.08 h [2]: 0.1
Kp at 0.35 h [2]: 0.41
Kp at 1 h [2]: 1.03
Kp at 3 h [2]: 0.7
Kp at 6 h [2]: 0.6
Kp at 12 h (brain, po, 10 mg/kg, PO 10 mg/kg, 12 hr, read-out: Brain-to-plasma ratio): 0.62
Kp (brain, po, 10 mg/kg, PO 10 mg/kg, read-out: brain-to-plasma ratio, range over time): 0.1 to 1.03
Kp (brain, po, 10 mg/kg, summary data, read-out: Brain to plasma ratio following a single oral dose): 1.03
Brain concentrations quantifiable up to (in vivo, ip, 10 mg/kg): up to 6 hr
Plasma concentrations quantifiable up to (in vivo, ip, 10 mg/kg): up to 6 hr
Brain concentration, individual animal (in vivo, ip, 10 mg/kg, 12 h): 0.00 ng/g
Plasma concentration, individual animal (in vivo, ip, 10 mg/kg, 12 h): 0.00 ng/mL
Brain concentration, individual animal (in vivo, ip, 10 mg/kg, 24 h): 0.00 ng/g
Plasma concentration, individual animal (in vivo, ip, 10 mg/kg, 24 h): 0.00 ng/mL
concentration at 0.08 h [3]: 38.4 ng/g
concentration at 0.35 h [3]: 287 ng/g
concentration at 1 h [3]: 383 ng/g
concentration at 3 h [3]: 48.4 ng/g
concentration at 12 h [3]: 0 ng/g
concentration at 24 h [3]: 0 ng/g
concentration at 0.08 h [4]: 43.6 ng/g
concentration at 0.35 h [4]: 266 ng/g
concentration at 1 h [4]: 305 ng/g
concentration at 3 h [4]: 57.7 ng/g
concentration at 6 h [4]: 6.06 ng/g
concentration at 12 h [4]: 0 ng/g
concentration at 24 h [4]: 0 ng/g
concentration at 0.08 h [5]: 229 ng/mL
concentration at 0.35 h [5]: 422 ng/mL
concentration at 1 h [5]: 409 ng/mL
concentration at 3 h [5]: 160 ng/mL
concentration at 6 h [5]: 16.1 ng/mL
concentration at 12 h [5]: 0 ng/mL
concentration at 24 h [5]: 0 ng/mL
concentration at 0.08 h [6]: 228 ng/mL
concentration at 0.35 h [6]: 467 ng/mL
concentration at 1 h [6]: 563 ng/mL
concentration at 3 h [6]: 174 ng/mL
concentration at 12 h [6]: 0 ng/mL
concentration at 24 h [6]: 0 ng/mL
Brain concentrations quantifiable up to (in vivo, iv, 2 mg/kg): up to 3 hr
Vss, fold more than normal volume of total body water (0.7 L/kg) (in vivo, iv, 2 mg/kg): 11 fold
Brain concentration, individual animal (in vivo, iv, 2 mg/kg, 6 h): 0.00 ng/g
Plasma concentration, individual animal (in vivo, iv, 2 mg/kg, 6 h): 0.00 ng/mL
Brain concentration, individual animal (in vivo, iv, 2 mg/kg, 12 h): 0.00 ng/g
Plasma concentration, individual animal (in vivo, iv, 2 mg/kg, 12 h): 0.00 ng/mL
Brain concentration, individual animal (in vivo, iv, 2 mg/kg, 24 h): 0.00 ng/g
Plasma concentration, individual animal (in vivo, iv, 2 mg/kg, 24 h): 0.00 ng/mL
concentration at 0.08 h [7]: 392 ng/g
concentration at 0.35 h [7]: 270 ng/g
